Two molecules from patent publication US6414037B1 (Pharmascience, priority 1998, dated 2002) can be followed below.

This assay has as its system C3H/10T1/2 clone 8 cells. Kind of assay: Two-stage transformation assay in C3H10T1/2 cells. The assay is classed as cell-based, mouse. The note with it: DMBA (0.25 μg/ml), TPA (0.1 μg/ml). How it is done: This 10T1/2 cell line of mouse embryo fibroblasts has been widely used as an experimental system to study neoplastic transformation induced by a variety of agents, such as polycyclic hydrocarbons, methylating agents, and X-rays. Two-stage transformation assays, with 3-methylcholanthrene (MCA) or DMBA as inducer and TPA as promoter, were performed in these tests.
C3H10T1/2 Cl 8 cells were purchased from the American Type Culture Collection (ATCC CCL 226, Rockville, Md.) and maintained in Eagle's basal medium with Earle's salts (EBME) containing 10% (v/v) fetal bovine serum (FBS, Gibco Laboratories, Chagrin Falls, Ohio) without antibiotics, and sodium bicarbonate (2.2 gl). Cells were seeded at 5×10^4 per 75 cm^2 flask and grown in a humidified incubator containing 5% carbon dioxide in air at 37° C. Cells used in all these experiments were passage between 10-13.
Two-stage transformation assays in C3H10T1/2 cells were performed according to a procedure modified from that described in Mondal et al. (1976) Cancer Res. 36:2254-2260. One thousand cells obtained from freshly confluent flasks were seeded per well in 12-well plate containing 2 ml of medium (12 wells per experimental point). After incubation at 37° C. for three days, MCA or DMBA (2 mg/ml stock solution in DMSO) was added to give final concentrations of 0.25 μg/ml. Carcinogen-containing medium was removed from the growing cultures after 24 hours and cells were rinsed once with PBS before addition of fresh EBME supplemented with 10% FBS and gentamycin (25 μg/ml). […] TPA and test compounds were added to the medium each time the medium was changed. Medium was changed on all plates twice weekly. After confluency was reached, the FBS concentration was reduced to 5% and amphotericin B (fungizone, 1.5 μg/ml) was added to the medium (see Reznikoff et al. (1973) Cancer Res. 33:3239-3249 and Bertram (1979) Cancer Lett. 7:289-298). Subsequent medium changes were performed weekly. Cultures were fixed with methanol and stained with Giemsa at the seventh week. Type II and III transformed foci were scored according to the teachings of Landolph “Transformation Assay of Established Cell Lines: Mechanism and Application,” Eds. Kakunaga et al. (Toronto: Oxford University Press, 1985), at pp. 185-199.

[1] abbreviates: all-trans-retinyl acetate (0.3 μg/ml).

Regarding `CC(=O)OC/C=C(C)/C=C/C=C(C)/C=C/C1=C(C)CCCC1(C)C` [all-trans-retinyl acetate], under setting [1], the “No. of wells foci/total no. of wells” value is given as 0/12, the “Total No. of foci/no. wells scored” value is reported as 0/12, the “Total No. type II” value is given as 0 and the “Total No. type III” value amounted to 0. Under setting [1], the “Wells with foci (%)” value was found to be 0%.
For `CC(=O)Oc1ccccc1C(=O)O` [aspirin], where the note is “aspirin 200 μM”, the “No. of wells foci/total no. of wells” value is listed as 0/12, the “Total No. of foci/no. wells scored” value is 0/12, the “Total No. type II” value is on record as 0 and the “Total No. type III” value was found to be 0. Besides, the “Wells with foci (%)” value (aspirin 200 μM) is given as 0%.
